Patent EP0523085B1, “PEROXY ACID BLEACH PRECURSORS AND DETERGENT COMPOSITIONS CONTAINING THEM” (priority 1990, dated 1991)
Read-outs that look alike come from different tables or passages of the source.

What was measured:
[1] = perhydrolysis with sodium perborate tetrahydrate at 10°C, iodometric titration; settings: for rates of perhydrolysis, comparison of the two precursors: each predissolved (KDAES in distilled water, TAED in dimethyl formamide); for time for dissolution and perhydrolysis to be substantially complete: precursor added in solid form, KDAES assumed to be 82% active
Protocol: A jacketed 1 litre glass vessel fitted with a magnetic stirrer was used to carry out the perhydrolysis and the temperature of the solution was controlled at 10°C by means of a Thermomix (RTM) cooling unit which was used to circulate the cooled water through a jacket around the perhydrolysis vessel
The value obtained for the blank was subtracted from the values obtained at the various time intervals to give the figure from which the percentage perhydrolysis was calculated.

[2] = water solubility at 10°C (saturated solution in distilled water); format: physicochemical
Protocol: For the purposes of the present invention the solubility of a precursor in water is defined as the weight of the compound that can be dissolved in 100ml distilled water at 10°C, expressed on a percentage basis. Precursors in accordance with the invention have water solubilities of at least 25% by weight, more preferably at least 50% and most preferably at least 75%.
The water solubility of this material was determined by cooling 2.3g distilled water to 10°C and adding the precursor until no further material would dissolve. A slight excess was then added and the temperature raised to 25°C to give complete solution before recooling to 10°C, ensuring that crystallisation of the precursor took place from a saturated solution.

Row | solubility [2] [%] | Compound | rates of perhydrolysis, comparison of the two precursors [1] | time for dissolution and perhydrolysis to be substantially complete [1] | solubility ([2]; distilled water, 10°C) [%] | amount of the precursor dissolved ([2]; in 2.3g distilled water at 10°C) [g] | precursor perhydrolysed within 5 minutes ([1]; solid product, on the basis of a purity of 97.6%)
1 | – | CC(=O)N(CCS(=O)(=O)[O-])C(C)=O.[K+] [KDAES, potassium N,N-diacetylaminoethane sulphonate] | broadly similar | ≤ 5 min | 66.6 | 4.71 | –
2 | 75.6 | CC(=O)N(CCC[N+](C)(C)C)C(C)=O.[Br-] [DTAPB, N,N-diacetyl trimethylammonio propylamine bromide] | – | – | – | – | approx. 92%
3 | – | tetra acetyl ethylene diamine [TAED, reference compound] | broadly similar | at least 30 minutes | – | – | –
